Test results taken from ChEMBL document CHEMBL5291721, “A preclinical secondary pharmacology resource illuminates target-adverse drug reaction associations of marketed drugs” (Nat Commun, 2023).

Experiments:
Motilin receptor = Motilin receptor (Homo sapiens, UniProt O43193)
[1] = target: T1, Muscarinic acetylcholine receptor M2 (Homo sapiens, UniProt P08172); assay type: functional, cell-based
T1 sequence (P08172 whole entry): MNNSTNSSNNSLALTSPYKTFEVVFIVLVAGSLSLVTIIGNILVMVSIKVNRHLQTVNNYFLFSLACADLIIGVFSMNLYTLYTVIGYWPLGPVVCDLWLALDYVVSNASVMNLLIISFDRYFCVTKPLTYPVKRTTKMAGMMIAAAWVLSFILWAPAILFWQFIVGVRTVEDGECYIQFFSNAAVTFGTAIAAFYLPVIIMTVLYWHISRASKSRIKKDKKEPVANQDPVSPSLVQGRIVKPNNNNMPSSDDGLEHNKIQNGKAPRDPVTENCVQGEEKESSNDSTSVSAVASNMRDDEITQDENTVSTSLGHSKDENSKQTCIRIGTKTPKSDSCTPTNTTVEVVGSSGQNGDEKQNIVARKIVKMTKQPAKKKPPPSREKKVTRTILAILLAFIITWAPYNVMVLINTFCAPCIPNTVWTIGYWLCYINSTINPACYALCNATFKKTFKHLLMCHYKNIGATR

[2] = target: T2, Prostaglandin G/H synthase 1 (Rattus norvegicus, UniProt Q63921); assay type: functional
T2 sequence (Q63921 whole entry): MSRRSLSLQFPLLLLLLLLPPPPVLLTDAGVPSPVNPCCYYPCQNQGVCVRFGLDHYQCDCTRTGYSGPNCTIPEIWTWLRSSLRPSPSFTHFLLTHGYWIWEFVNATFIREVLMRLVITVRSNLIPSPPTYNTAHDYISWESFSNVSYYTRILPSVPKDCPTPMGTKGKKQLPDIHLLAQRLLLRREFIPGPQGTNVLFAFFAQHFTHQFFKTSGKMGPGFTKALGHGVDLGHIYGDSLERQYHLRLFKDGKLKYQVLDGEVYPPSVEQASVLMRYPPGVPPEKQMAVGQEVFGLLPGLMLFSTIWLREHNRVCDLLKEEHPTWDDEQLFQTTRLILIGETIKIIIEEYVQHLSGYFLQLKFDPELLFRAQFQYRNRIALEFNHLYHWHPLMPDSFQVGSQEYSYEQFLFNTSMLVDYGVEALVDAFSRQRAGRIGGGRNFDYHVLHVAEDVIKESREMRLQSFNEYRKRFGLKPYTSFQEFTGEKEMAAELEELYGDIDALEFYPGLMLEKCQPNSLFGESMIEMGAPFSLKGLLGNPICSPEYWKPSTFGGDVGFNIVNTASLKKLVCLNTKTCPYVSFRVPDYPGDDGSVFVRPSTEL

[3] = target: T3, 5-hydroxytryptamine receptor 1A (Homo sapiens, UniProt P08908); assay type: functional, cell-based
T3 sequence (P08908 whole entry): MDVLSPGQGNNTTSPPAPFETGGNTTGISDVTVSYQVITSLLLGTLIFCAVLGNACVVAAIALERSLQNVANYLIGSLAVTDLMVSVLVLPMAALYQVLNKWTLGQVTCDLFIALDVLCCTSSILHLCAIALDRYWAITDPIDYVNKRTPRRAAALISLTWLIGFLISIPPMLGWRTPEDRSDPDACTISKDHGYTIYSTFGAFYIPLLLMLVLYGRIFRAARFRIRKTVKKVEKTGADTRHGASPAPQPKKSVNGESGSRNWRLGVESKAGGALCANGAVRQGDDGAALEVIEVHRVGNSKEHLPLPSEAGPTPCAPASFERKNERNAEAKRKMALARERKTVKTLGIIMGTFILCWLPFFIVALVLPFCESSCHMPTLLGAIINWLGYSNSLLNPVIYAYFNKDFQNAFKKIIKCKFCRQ

[4] = target: Neuronal acetylcholine receptor subunit alpha-4 (Homo sapiens, UniProt P43681)
Neuronal acetylcholine receptor subunit alpha-4, sequence (P43681 whole entry): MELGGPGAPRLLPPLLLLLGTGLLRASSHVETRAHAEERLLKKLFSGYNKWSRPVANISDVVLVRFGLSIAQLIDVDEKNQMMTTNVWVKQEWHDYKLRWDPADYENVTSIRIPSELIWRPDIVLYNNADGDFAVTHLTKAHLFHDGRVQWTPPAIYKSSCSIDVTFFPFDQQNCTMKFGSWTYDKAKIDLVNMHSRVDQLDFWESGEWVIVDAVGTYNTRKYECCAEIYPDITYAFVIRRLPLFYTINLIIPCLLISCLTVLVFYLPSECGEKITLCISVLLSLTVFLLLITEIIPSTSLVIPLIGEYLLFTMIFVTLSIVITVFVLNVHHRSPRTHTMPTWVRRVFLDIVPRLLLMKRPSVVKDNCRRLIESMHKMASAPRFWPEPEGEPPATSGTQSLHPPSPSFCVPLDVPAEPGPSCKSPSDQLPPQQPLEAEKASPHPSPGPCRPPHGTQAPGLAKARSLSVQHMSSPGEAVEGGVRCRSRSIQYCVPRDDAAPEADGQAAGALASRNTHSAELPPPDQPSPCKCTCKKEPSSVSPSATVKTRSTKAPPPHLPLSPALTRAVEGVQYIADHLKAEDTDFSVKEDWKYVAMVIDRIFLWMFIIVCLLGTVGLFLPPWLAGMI

[5] = target: T4, Gastrin/cholecystokinin type B receptor (Homo sapiens, UniProt P32239)
T4 sequence (P32239 whole entry): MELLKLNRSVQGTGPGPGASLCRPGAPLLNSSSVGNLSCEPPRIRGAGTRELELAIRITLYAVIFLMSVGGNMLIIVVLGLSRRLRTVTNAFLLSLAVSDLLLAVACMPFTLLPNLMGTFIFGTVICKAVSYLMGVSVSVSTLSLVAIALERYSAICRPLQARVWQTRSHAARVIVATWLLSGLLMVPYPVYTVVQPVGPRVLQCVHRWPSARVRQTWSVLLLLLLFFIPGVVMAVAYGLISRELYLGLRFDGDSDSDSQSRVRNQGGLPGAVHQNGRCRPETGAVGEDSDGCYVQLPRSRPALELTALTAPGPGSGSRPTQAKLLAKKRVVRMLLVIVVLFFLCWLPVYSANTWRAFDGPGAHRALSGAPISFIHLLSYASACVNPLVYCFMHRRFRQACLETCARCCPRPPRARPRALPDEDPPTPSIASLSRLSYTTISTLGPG

B2 bradykinin receptor = target: T5, B2 bradykinin receptor (Homo sapiens, UniProt P30411)
T5 sequence (P30411 whole entry): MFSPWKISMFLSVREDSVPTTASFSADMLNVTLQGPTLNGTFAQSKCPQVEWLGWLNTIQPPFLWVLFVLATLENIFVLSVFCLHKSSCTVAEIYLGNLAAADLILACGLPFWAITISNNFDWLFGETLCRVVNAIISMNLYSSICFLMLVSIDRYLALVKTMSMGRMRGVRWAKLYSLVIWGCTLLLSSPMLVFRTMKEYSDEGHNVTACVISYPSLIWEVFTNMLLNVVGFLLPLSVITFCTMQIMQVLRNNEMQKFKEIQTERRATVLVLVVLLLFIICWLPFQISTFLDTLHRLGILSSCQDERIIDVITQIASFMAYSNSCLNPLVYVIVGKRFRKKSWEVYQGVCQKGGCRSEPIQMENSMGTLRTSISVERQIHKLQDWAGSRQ

D(3) dopamine receptor = D(3) dopamine receptor (Homo sapiens, UniProt P35462)
D(3) dopamine receptor, sequence (P35462 whole entry): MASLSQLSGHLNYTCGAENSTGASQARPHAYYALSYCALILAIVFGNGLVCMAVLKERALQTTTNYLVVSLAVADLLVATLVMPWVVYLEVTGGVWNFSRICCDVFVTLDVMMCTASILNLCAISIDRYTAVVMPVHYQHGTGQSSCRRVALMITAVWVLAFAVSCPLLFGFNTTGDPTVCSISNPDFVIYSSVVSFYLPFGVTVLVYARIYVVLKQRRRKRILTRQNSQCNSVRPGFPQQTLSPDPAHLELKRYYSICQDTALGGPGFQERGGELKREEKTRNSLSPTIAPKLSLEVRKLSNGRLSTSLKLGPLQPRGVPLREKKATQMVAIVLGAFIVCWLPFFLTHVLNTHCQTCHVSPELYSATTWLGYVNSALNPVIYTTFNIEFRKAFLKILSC
Further: assay procedure not described here.

Motilin receptor, sequence (O43193 whole entry): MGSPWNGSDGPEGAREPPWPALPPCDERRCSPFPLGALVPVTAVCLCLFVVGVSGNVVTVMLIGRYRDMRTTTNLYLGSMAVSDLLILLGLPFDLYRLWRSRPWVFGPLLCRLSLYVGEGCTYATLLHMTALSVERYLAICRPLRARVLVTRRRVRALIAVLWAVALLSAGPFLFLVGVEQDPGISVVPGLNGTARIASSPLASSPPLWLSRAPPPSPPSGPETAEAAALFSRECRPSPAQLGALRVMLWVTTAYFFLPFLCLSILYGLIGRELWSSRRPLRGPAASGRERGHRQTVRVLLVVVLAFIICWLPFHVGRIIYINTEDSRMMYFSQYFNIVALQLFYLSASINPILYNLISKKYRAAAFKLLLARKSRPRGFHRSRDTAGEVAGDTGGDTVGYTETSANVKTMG

SMILES	AC50 (Motilin receptor) [µM]	AC50 [1] [µM]	AC50 [2] [µM]	AC50 [3] [µM]	AC50 [4] [µM]	AC50 [5] [µM]	AC50 (B2 bradykinin receptor) [µM]	AC50 (D(3) dopamine receptor) [µM]
C[C@@H]1C[C@H]2[C@@H]3CCC4=CC(=O)C=C[C@]4(C)[C@@]3(F)[C@@H](O)C[C@]2(C)[C@@]1(O)C(=O)CO [DEXAMETHASONE]	> 30	> 10	> 30	> 10	> 30	> 30	> 30	> 30
Oc1ccc(CCNCCCCCCNCCc2ccccc2)cc1O [DOPEXAMINE]	> 30	> 30	> 30	> 30	> 30	> 30	> 30	0.16
CCN1CC(CCN2CCOCC2)C(c2ccccc2)(c2ccccc2)C1=O (stereo not drawn) [DOXAPRAM]	> 30	> 30	> 30	> 30	> 30	> 30	> 30	> 30
CCCCOc1ccc(C(=O)CCN2CCCCC2)cc1 [DYCLONINE]	> 10	> 10	> 30	> 10	> 10	> 30	> 30	> 10
CCc1cc2c(s1)-n1c(C)nnc1CN=C2c1ccccc1Cl [ETIZOLAM]	> 30	> 30	> 30	> 30	> 30	> 30	> 30	> 30
CCOC(=O)c1ncn2c1CN(C)C(=O)c1cc(F)ccc1-2 [FLUMAZENIL]	> 30	> 30	> 30	> 30	> 30	> 30	> 30	> 30
CC/C=C\C/C=C\C/C=C\C/C=C\C/C=C\CCCC(=O)OCC [ICOSAPENT ETHYL]	> 30	> 30	2.4	> 30	> 30	> 30	> 30	> 30
NNC(=O)c1ccncc1 [ISONIAZID]	> 30	> 30	> 30	> 30	> 30	> 30	> 30	> 30
COc1ccc(CN2CCN(C(c3ccc(F)cc3)c3ccc(F)cc3)CC2)c(OC)c1OC [LOMERIZINE]	> 30	> 30	> 30	> 30	> 30	> 30	> 30	2.2
O=C1Nc2ccc(Cl)cc2C(c2ccccc2Cl)=NC1O (stereo not drawn) [LORAZEPAM]	> 10	> 10	> 30	> 10	> 10	> 30	> 30	> 10
CN1CCN=C(c2ccccc2)c2cc(Cl)ccc21 [MEDAZEPAM]	> 30	> 30	16	> 30	30	> 30	> 30	> 30
